# Reference: US20110015162A1, “15,16-Methylene-17-hydroxy-19-nor-21-carboxylic acid-steroid Y-lactone derivative, use thereof and medicinal products containing the derivative” (Bayer Schering Pharma Aktiengesellschaft, priority 2007, published 2011)
# Experiments:
# [1] = target: T1, mineralocorticoid receptor (Homo sapiens, UniProt P08235); experiment: Antimineralocorticoid action by transactivation test (MDCK reporter cells); format: cell-based; set-up: expressed in transfected cells; host or cells: MDCK cells;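 as to Emax: percent inhibition of the aldosterone-stimulated reporter signal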
# T1 sequence (P08235 1-984): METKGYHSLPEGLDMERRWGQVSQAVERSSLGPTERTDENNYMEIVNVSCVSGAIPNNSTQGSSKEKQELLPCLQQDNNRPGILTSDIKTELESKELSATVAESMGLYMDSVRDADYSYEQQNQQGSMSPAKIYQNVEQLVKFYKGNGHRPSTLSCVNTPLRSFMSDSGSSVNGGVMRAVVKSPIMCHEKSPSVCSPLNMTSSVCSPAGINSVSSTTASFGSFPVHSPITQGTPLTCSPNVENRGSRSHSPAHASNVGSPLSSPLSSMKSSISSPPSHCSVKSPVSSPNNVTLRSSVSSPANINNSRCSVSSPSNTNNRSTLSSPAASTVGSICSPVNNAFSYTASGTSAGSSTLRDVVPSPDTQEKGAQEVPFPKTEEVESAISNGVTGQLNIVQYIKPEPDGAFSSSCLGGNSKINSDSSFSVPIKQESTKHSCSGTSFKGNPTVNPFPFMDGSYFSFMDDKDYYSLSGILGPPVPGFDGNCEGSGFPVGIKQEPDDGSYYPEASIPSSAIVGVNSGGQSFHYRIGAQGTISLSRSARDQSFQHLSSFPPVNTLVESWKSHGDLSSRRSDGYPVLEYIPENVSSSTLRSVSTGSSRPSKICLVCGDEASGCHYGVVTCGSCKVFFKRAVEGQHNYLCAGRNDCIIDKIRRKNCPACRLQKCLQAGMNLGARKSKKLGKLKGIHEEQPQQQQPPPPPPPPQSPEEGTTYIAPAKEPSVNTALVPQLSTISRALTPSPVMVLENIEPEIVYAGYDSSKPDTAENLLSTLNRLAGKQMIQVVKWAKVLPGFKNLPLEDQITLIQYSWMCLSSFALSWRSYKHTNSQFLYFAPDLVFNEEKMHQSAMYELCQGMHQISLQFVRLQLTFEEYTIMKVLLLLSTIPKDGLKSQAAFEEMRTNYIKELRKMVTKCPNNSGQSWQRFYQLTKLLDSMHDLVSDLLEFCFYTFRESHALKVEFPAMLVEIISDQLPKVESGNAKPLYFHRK
# Protocol: The test compounds were added eight hours later, and the cells were incubated with the compounds for 16 hours. The tests were carried out in triplicate. At the end of incubation the medium containing the effector was removed and replaced with lysis buffer. After luciferase assay substrate (Promega, #E1501) had been added, the 96-well plates were then put in a microplate luminometer (Pherastar, BMG Labtech), and the luminescence was measured. The IC50 values were evaluated using software for calculating dose-effect relations.
# 5. Determination of Antimineralocorticoid Action by Means of Transactivation Tests:
# The antimineralocorticoid activity of the test substances was determined as for the transactivation tests described above.
# The following modifications were undertaken: In this case reporter cell lines were used (MDCK cells) that express the human mineralocorticoid receptor, and transiently contain a reporter construct that contains luciferase under the control of a steroid hormone-responsive promoter.
# [2] = target: T1, mineralocorticoid receptor; experiment: Mineralocorticoid receptor binding test; set-up: made in house; host or cells: Hi5 insect cells (cytosol); conditions: reference substance 3H-aldosterone, cytosol from MR-expressing insect cells (Hi5)
# Protocol: (§1) Using cytosol from progesterone receptor-expressing insect cells (Hi5), competitive binding to the progesterone receptor was determined from the ability to displace ^3H-progesterone as reference substance from the receptor.
# 2. Mineralocorticoid Receptor Binding Test:
# The test was carried out as in 1, with the following modifications: cytosol from mineralocorticoid receptor-expressing insect cells (Hi5) was used, and the reference substance was ^3H-aldosterone.
# progesterone receptor = target: T2, progesterone receptor (Homo sapiens, UniProt P06401); experiment: Progesterone receptor binding test; conditions: CF 1 = affinity of progesterone; CF >1 lower affinity, <1 higher affinity
# T2 construct: made in house; host or cells: Hi5 insect cells (cytosol)
# T2 sequence (P06401 1-933): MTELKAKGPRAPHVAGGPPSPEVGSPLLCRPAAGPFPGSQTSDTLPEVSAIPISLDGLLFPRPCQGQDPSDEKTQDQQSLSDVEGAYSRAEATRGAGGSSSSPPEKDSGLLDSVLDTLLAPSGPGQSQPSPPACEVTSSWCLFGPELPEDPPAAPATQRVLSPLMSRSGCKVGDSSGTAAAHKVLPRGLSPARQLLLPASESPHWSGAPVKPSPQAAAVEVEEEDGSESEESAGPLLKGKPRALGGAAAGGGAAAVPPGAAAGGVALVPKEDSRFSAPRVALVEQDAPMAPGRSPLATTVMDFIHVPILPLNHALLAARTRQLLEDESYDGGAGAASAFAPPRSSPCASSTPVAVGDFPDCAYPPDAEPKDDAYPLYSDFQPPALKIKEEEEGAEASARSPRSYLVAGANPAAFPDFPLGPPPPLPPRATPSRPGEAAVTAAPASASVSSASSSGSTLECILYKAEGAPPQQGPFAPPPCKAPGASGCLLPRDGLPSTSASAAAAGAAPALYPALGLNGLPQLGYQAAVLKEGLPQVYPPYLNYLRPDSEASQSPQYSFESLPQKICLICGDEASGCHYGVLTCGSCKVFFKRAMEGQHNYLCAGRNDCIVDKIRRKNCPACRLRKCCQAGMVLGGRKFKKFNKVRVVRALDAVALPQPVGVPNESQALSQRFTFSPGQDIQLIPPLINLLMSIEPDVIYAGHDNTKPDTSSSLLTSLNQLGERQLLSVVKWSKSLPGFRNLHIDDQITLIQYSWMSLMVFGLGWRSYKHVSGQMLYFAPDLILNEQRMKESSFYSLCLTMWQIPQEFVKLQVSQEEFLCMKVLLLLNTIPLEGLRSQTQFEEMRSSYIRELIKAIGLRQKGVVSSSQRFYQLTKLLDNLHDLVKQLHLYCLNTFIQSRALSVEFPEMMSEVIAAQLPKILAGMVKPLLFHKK
# Protocol: 1. Progesterone Receptor Binding Test:
# as §1
# [3] = target: T3, fusion protein from the PR-ligand-binding domain and a Gal4-transactivation domain (Homo sapiens, UniProt P06401); experiment: Progestational action by transactivation test (CHO K1 reporter cells); format: cell-based; conditions: CHO-K1, 16 h, read-out: Progesterone receptor Agonism efficacy
# T3 construct: expressed in transfected cells; host or cells: CHO K1 cells, stably transfected
# Protocol: 4. Determination of Progestational Action by Means of Transactivation Tests:
# The culture medium used for culture of the cells used for the assay was DMEM (Dulbecco's Modified Eagle Medium: […] glucose; PAA, #E15-009) with 10% FCS (Biochrom, S0115, batch #615B), 4 mM L-glutamine, 1% penicillin/streptomycin, 1 mg/ml G418 and 0.5 μg/ml puromycin.
# Reporter cell lines (CHO K1 cells stably transfected with a fusion protein from the PR-ligand-binding domain and a Gal4-transactivation domain and a reporter construct, which contained luciferase under the control of a Gal4-responsive promoter) were seeded at a density of 4×10^4 cells per well in white, opaque tissue culture plates each with 96 wells (PerkinElmer, #P12-106-017) and kept in culture medium with 3% DCC-FCS (serum treated with activated charcoal to remove interfering components contained in the serum). The test compounds were added eight hours later, and the cells were incubated with the compounds for 16 hours. The tests were carried out in triplicate. At the end of incubation the medium containing the effector was removed and replaced with lysis buffer. After luciferase assay substrate (Promega, #E1501) had been added, the 96-well plates were then put in a microplate luminometer (Pherastar, BMG Labtech), and the luminescence was measured. The IC50 values were evaluated using software for calculating dose-effect relations.
# T3 sequence (P04386 1-147 partner limits assumed, one chain of several): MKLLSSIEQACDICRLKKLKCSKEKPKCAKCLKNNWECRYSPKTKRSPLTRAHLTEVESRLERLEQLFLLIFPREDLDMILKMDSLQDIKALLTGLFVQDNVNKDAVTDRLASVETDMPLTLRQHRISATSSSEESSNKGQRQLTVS
smiles,measurement,setting,value
"C[C@]12CCC(=O)C=C1[C@@H]1C[C@@H]1[C@H]1[C@@H]3[C@@H]4C[C@@H]4[C@@]4(CCC(=O)O4)[C@@]3(C)CC[C@@H]12 [A, 6β, 7β;15β,16β-dimethylene-3-oxo-17-pregn-4-ene-21,17β-carbolactone, reference compound]",IC50,"[1]; MDCK cells, with 1 nM aldosterone, read-out: Mineralocorticoid receptor Antagonism IC50",3.3 nM
same,Emax,"[1]; MDCK, read-out: Mineralocorticoid receptor Antagonism efficacy",64.1%
same,Mineralocorticoid receptor (MR) Competition factor,[2],0.5
same,Progesterone receptor (PR) Competition factor,progesterone receptor,2.7
same,Emax,[3],72.2%
